Earlier results as cited in US5360612A, “Pharmaceutical compositions containing triazole derivatives for rectal administration” (Pfizer Inc., priority 1992, dated 1994).

Conditions: in vivo

Structure (SMILES): CN[C@@H](C)[C@H](O)c1ccccc1 [ephedrine]
- bioavailability from suppository fatty bases: do not show good bioavailability
